Assay results reported in PubChem BioAssay (NCI).
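48-hour exposure; five concentrations; linearly interpolated endpoints. TGI marks complete inhibition of growth.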

Columns and labels:
Experiment in all cases: NCI anticancer screen, dose series, 48 h
SNB-19 CNS = test system: SNB-19 CNS
HOP-62 NSCLC = test system: HOP-62 NSCLC
UO-31 renal = test system: UO-31 renal
ACHN renal = test system: ACHN renal
DLD-1 colon = test system: DLD-1 colon
HCT-116 colon = test system: HCT-116 colon
HCT-15 colon = test system: HCT-15 colon
DMS 273 small cell lung = test system: DMS 273 small cell lung
TK-10 renal = test system: TK-10 renal
HT29 colon = test system: HT29 colon
DMS 114 small cell lung = test system: DMS 114 small cell lung
KM12 colon = test system: KM12 colon
SK-MEL-28 melanoma = test system: SK-MEL-28 melanoma
OVCAR-5 ovarian = test system: OVCAR-5 ovarian
MOLT-4 leukemia = test system: MOLT-4 leukemia
CCRF-CEM leukemia = test system: CCRF-CEM leukemia
SK-MEL-5 melanoma = test system: SK-MEL-5 melanoma
RPMI-8226 leukemia = test system: RPMI-8226 leukemia
NCI-H23 lung = test system: NCI-H23 lung
LXFL 529 NSCLC = test system: LXFL 529 NSCLC
OVCAR-8 ovarian = test system: OVCAR-8 ovarian
OVCAR-4 ovarian = test system: OVCAR-4 ovarian
NCI-H226 lung = test system: NCI-H226 lung
SF-268 CNS = test system: SF-268 CNS
MALME-3M melanoma = test system: MALME-3M melanoma
HCC-2998 colon = test system: HCC-2998 colon
XF 498 CNS = test system: XF 498 CNS
SR leukemia = test system: SR leukemia
K-562 leukemia = test system: K-562 leukemia
UACC-62 melanoma = test system: UACC-62 melanoma
NCI-H522 lung = test system: NCI-H522 lung
U251 CNS = test system: U251 CNS
UACC-257 melanoma = test system: UACC-257 melanoma
IGROV1 ovarian = test system: IGROV1 ovarian
M19-MEL melanoma = test system: M19-MEL melanoma
SF-539 CNS = test system: SF-539 CNS
CAKI-1 renal = test system: CAKI-1 renal
COLO 205 colon = test system: COLO 205 colon
M14 melanoma = test system: M14 melanoma
SK-MEL-2 melanoma = test system: SK-MEL-2 melanoma
SF-295 CNS = test system: SF-295 CNS
HOP-92 NSCLC = test system: HOP-92 NSCLC
A549 NSCLC = test system: A549 NSCLC
OVCAR-3 ovarian = test system: OVCAR-3 ovarian
KM20L2 colon = test system: KM20L2 colon
SW-620 colon = test system: SW-620 colon
NCI-H460 lung = test system: NCI-H460 lung
SNB-75 CNS = test system: SNB-75 CNS
786-0 renal = test system: 786-0 renal
MDA-N = test system: MDA-N
EKVX NSCLC = test system: EKVX NSCLC
RXF 393 renal = test system: RXF 393 renal
BT-549 breast = test system: BT-549 breast
SN12C renal = test system: SN12C renal
DU-145 prostate = test system: DU-145 prostate
MDA-MB-435 = test system: MDA-MB-435
HL-60(TB) leukemia = test system: HL-60(TB) leukemia
A498 renal = test system: A498 renal
T-47D breast = test system: T-47D breast
LOX IMVI melanoma = test system: LOX IMVI melanoma
MDA-MB-231 breast = test system: MDA-MB-231 breast
PC-3 prostate = test system: PC-3 prostate
SK-OV-3 ovarian = test system: SK-OV-3 ovarian
MCF7 breast = test system: MCF7 breast
NCI/ADR-RES ovarian = test system: NCI/ADR-RES ovarian
HS 578T breast = test system: HS 578T breast

SMILES: O=C(c1ccccc1)c1c(CC(O)c2ccccn2)n(C(=O)c2ccccc2)c2ccccc12 (stereo not drawn)
- TGI (SNB-19 CNS): > 100 µM
- TGI (HOP-62 NSCLC): 38.2 µM
- TGI (UO-31 renal): 67.5 µM
- TGI (ACHN renal): 96.6 µM
- TGI (DLD-1 colon): > 100 µM
- TGI (HCT-116 colon): 27.8 µM
- TGI (HCT-15 colon): 88.1 µM
- TGI (DMS 273 small cell lung): 58.3 µM
- TGI (TK-10 renal): > 100 µM
- TGI (HT29 colon): 30.1 µM
- TGI (DMS 114 small cell lung): 71.9 µM
- TGI (KM12 colon): > 100 µM
- TGI (SK-MEL-28 melanoma): 39.6 µM
- TGI (OVCAR-5 ovarian): 52.7 µM
- TGI (MOLT-4 leukemia): 63.6 µM
- TGI (CCRF-CEM leukemia): 80.5 µM
- TGI (SK-MEL-5 melanoma): 27.3 µM
- TGI (RPMI-8226 leukemia): 56 µM
- TGI (NCI-H23 lung): 56.3 µM
- TGI (LXFL 529 NSCLC): > 100 µM
- TGI (OVCAR-8 ovarian): 95.8 µM
- TGI (OVCAR-4 ovarian): > 100 µM
- TGI (NCI-H226 lung): 54 µM
- TGI (SF-268 CNS): > 100 µM
- TGI (MALME-3M melanoma): 46 µM
- TGI (HCC-2998 colon): 67.7 µM
- TGI (XF 498 CNS): 46 µM
- TGI (SR leukemia): 50 µM
- TGI (K-562 leukemia): > 100 µM
- TGI (UACC-62 melanoma): 32.5 µM
- TGI (NCI-H522 lung): 47.2 µM
- TGI (U251 CNS): 58 µM
- TGI (UACC-257 melanoma): 43.6 µM
- TGI (IGROV1 ovarian): > 100 µM
- TGI (M19-MEL melanoma): 40.1 µM
- TGI (SF-539 CNS): 31.5 µM
- TGI (CAKI-1 renal): > 100 µM
- TGI (COLO 205 colon): 50.5 µM
- TGI (M14 melanoma): 38.1 µM
- TGI (SK-MEL-2 melanoma): 30.9 µM
- TGI (SF-295 CNS): 84.8 µM
- TGI (HOP-92 NSCLC): 57.5 µM
- TGI (A549 NSCLC): > 100 µM
- TGI (OVCAR-3 ovarian): 68.4 µM
- TGI (KM20L2 colon): 33.5 µM
- TGI (SW-620 colon): > 100 µM
- TGI (NCI-H460 lung): 57 µM
- TGI (SNB-75 CNS): 43.3 µM
- TGI (786-0 renal): > 100 µM

SMILES: C=C1C(=O)O[C@H]2C/C(C)=C/CC[C@@]3(C)O[C@](C)(CC[C@@H]3I)[C@@H](I)C[C@@H]12
- TGI (SNB-19 CNS): 13.5 µM
- TGI (MDA-N): 10.9 µM
- TGI (HOP-62 NSCLC): 15.6 µM
- TGI (EKVX NSCLC): 14.3 µM
- TGI (UO-31 renal): 11.8 µM
- TGI (ACHN renal): 13.6 µM
- TGI (HCT-116 colon): 9.51 µM
- TGI (HCT-15 colon): 12.2 µM
- TGI (RXF 393 renal): 12.7 µM
- TGI (BT-549 breast): 12.4 µM
- TGI (TK-10 renal): 12.4 µM
- TGI (SN12C renal): 16.4 µM
- TGI (DU-145 prostate): 11.8 µM
- TGI (HT29 colon): 14.9 µM
- TGI (KM12 colon): 18.5 µM
- TGI (SK-MEL-28 melanoma): 14.1 µM
- TGI (MDA-MB-435): 11.7 µM
- TGI (OVCAR-5 ovarian): 26.2 µM
- TGI (MOLT-4 leukemia): 13.6 µM
- TGI (HL-60(TB) leukemia): 20.2 µM
- TGI (CCRF-CEM leukemia): 13.3 µM
- TGI (SK-MEL-5 melanoma): 9.92 µM
- TGI (RPMI-8226 leukemia): 5.12 µM
- TGI (NCI-H23 lung): 18.5 µM
- TGI (A498 renal): 17.5 µM
- TGI (OVCAR-8 ovarian): 10.1 µM
- TGI (OVCAR-4 ovarian): 14.3 µM
- TGI (NCI-H226 lung): 2.13 µM
- TGI (SF-268 CNS): 14.4 µM
- TGI (MALME-3M melanoma): 14.7 µM
- TGI (HCC-2998 colon): 10.8 µM
- TGI (SR leukemia): 8.2 µM
- TGI (K-562 leukemia): 29.9 µM
- TGI (UACC-62 melanoma): 12 µM
- TGI (T-47D breast): 15 µM
- TGI (NCI-H522 lung): 8.64 µM
- TGI (U251 CNS): 11.7 µM
- TGI (UACC-257 melanoma): 12.7 µM
- TGI (LOX IMVI melanoma): 6.34 µM
- TGI (IGROV1 ovarian): 6.62 µM
- TGI (SF-539 CNS): 14.4 µM
- TGI (CAKI-1 renal): 14 µM
- TGI (COLO 205 colon): 12.5 µM
- TGI (M14 melanoma): 27.1 µM
- TGI (SK-MEL-2 melanoma): 25.8 µM
- TGI (SF-295 CNS): 15 µM
- TGI (MDA-MB-231 breast): 14.7 µM
- TGI (HOP-92 NSCLC): 13 µM
- TGI (PC-3 prostate): 22.9 µM
- TGI (A549 NSCLC): 18.2 µM
- TGI (OVCAR-3 ovarian): 8.63 µM
- TGI (SK-OV-3 ovarian): 14.4 µM
- TGI (MCF7 breast): 9.61 µM
- TGI (NCI/ADR-RES ovarian): 5.65 µM
- TGI (SW-620 colon): 12.4 µM
- TGI (HS 578T breast): 26 µM
- TGI (NCI-H460 lung): 13.2 µM
- TGI (SNB-75 CNS): 12.4 µM
- TGI (786-0 renal): 10.9 µM
